Data taken from patent publication US20260233024A1, “IRIDIUM COMPLEX, PHOTOSENSITIZER, AND COMPOSITION FOR PHOTODYNAMIC THERAPY” (UNIST(ULSAN NATIONAL INSTITUTE OF SCIENCE AND TECHNOLOGY), priority 2022, published 2026).
Like-named read-outs stand apart in the source and are kept apart here.

Assays:
A549 = test: MTT cell viability after iridium complex treatment, with or without light (photodynamic cancer cell killing); format: cell-based
Experimental: (§1) After seeding 1.5×10^4 cells in a 96-well plate, the cells were cultured overnight at 37° C. under 5% carbon dioxide conditions. Afterwards, the cells were treated with the iridium complex and cultured for 2 hours, after which the medium was replaced with fresh medium. After irradiated for 30 seconds with a 1 sun simulator (100 mW/cm2, PEG-L01, Peccell), cells were cultured for an additional 24 hours in a humidified incubator containing 5% carbon dioxide at 37° C. Cell viability was measured using the MTT (tetrazolium salt (3-(4,5-dimethylthiazol-2-yl)-2,5-diphenyltetrazolium bromide)) assay. MTT reagent was added to each well and cultured for 4 hours, and then the formazan crystals produced in the surviving cells were dissolved in DMSO, followed by measurement of the absorbance at 570 nm.
(§2) When the same light (1 sun, 3 J/cm^2) was irradiated to cancer cells administered with the HBrb, B2, and TIr3 iridium complexes as respective photosensitizers, the IC50 values for the respective photo sensitizers were first calculated, and the results are shown in Table 2 below.
(§3) Data indicating the inherent toxicity may be determined by cell viability under conditions without light application (hv−). The experimental results in FIGS. 6A-6F show the cell viability for each cell under conditions where no light was given, where M indicates the cell line MDA-MB-231, A indicates the cell line A549, H indicates the cell line HeLa, C indicates the cell line Caco-2, and P indicates the cell line PANC-1, respectively. FIGS. 6A, 6B, and 6C represent the cell viability when each substance was administered to each cell line for 2 hours, replaced with new media, and then cultured for an additional 24 hours. FIG. 6D is a graph of cell viability when TIr3 and B2 were administered at different concentrations, and at the concentration of a combination of the two (TIr3+B2), to PANC-1, pancreatic cancer cells. […] FIGS. 6E and 6F show the results of identifying the change in the cell viability in the MDA-MB-231 breast cancer cell line under conditions with TIr3 only and the TIr3+B2 combination depending on the presence of light irradiation.

Caco-2 = test: as above; format: cell-based
Experimental: as §1, §2, §3

HeLa = test: as above; format: cell-based; conditions: for IC50: HeLa
Experimental: as §1, §2, §3

MDA-MB-231 = test: as above; format: cell-based
Experimental: as §1, §2, §3

PANC-1 = test: as above; format: cell-based; conditions: for cell viability (hv−): FIG. 6D, especially 16 and 32 μM
Experimental: as §1, §2, §3

MKN45 = test: as above; format: cell-based
Experimental: as §1, §2

[1] = Dynamic light scattering of Kolliphor HS15 micelles; format: physicochemical; conditions: 1 mg/mL in distilled water using 5% Kolliphor HS15
Experimental: FIGS. 7A-7E illustrates schematic diagrams of micellized synergistic combination (SY) of TIr3 and B2 using Kolliphor HS 15 surfactant (FIG. 7A). As a result, when TIr3, B2, and 0.5 mg/ml TIr3+0.5 mg/ml B2 (SY) materials are dissolved in distilled water at a concentration of 1 mg/mL using 5% Kolliphor HS15, it was found via dynamic light scattering (DLS) that nanoparticles with a size of approximately 10 nm were formed (FIG. 7B). In addition, the size of the SY combination was reidentified through transmission electron microscopy (TEM) (FIG. 7C). […] After four administrations of the drug, the results of hepatotoxicity (alanine aminotransferase, ALT) on the 17th day are shown in FIG. 7E.

[2] = light 1 sun, 3 J/cm^2 (100 mW/cm2, 30 s), 2 h treatment, 24 h culture, read-out: IC50 (hv+)
[3] = no light, read-out: IC50 (hv−), IC50, dark
[4] = light 1 sun, 3 J/cm^2, read-out: IC50 (hv+)

Row | Structure (SMILES) | IC50 (A549; [2]) [µM] | IC50 (A549; [3]) [µM] | IC50 (Caco-2; [4]) [µM] | IC50 (Caco-2; [3]) [µM] | IC50 (HeLa; [2]) [µM] | IC50 (HeLa; [3]) [µM] | inherent toxicity of photosensitizer (HeLa; up to 32 μM, no light) | IC50 (MDA-MB-231; [4]) [µM] | IC50 (MDA-MB-231; [3]) [µM] | IC50 (PANC-1; [2]) [µM] | cell viability (hv−) (PANC-1; no light) | IC50 (PANC-1; [3]) [µM] | IC50 (MKN45; [4]) [µM] | IC50 (MKN45; [3]) [µM] | nanoparticle size (DLS) [1]
1 | Cc1cc(-c2sc3ccccc3[c]2[Ir]([O]C(=O)c2ncccc2OCCCN2CCOCC2)[c]2c(-c3cc(C)c4ccccc4n3)sc3ccccc23)nc2ccccc12 [Example B2] | 3.8 ± 1.3 | > 32 | 0.68 ± 0.01 | > 32 | 2.4 ± 0.08 | > 32 | non-toxic | 0.89 ± 0.1 | > 32 | 11.7 ± 2.02 | excellent biocompatibility | > 32 | 0.86 ± 0.03 | > 32 | approximately 10 nm
2 | CC(=O)C=C(C)[O][Ir]([c]1c(-c2cc(C(F)(F)F)c3ccccc3n2)sc2ccccc12)[c]1c(-c2cc(C(F)(F)F)c3ccccc3n2)sc2ccccc12 [FIra] | > 32 |  |  |  | > 32 |  |  |  |  | > 32 |  |  |  |  | 
3 | O=C([O][Ir]([c]1c(-c2cc(C(F)(F)F)c3ccccc3n2)sc2ccccc12)[c]1c(-c2cc(C(F)(F)F)c3ccccc3n2)sc2ccccc12)c1ncccc1O [FIrp] | > 32 |  |  |  | > 32 |  |  |  |  | > 32 |  |  |  |  | 
4 | CC(=O)C=C(C)[O][Ir]([c]1c(-c2cc(C)c3ccccc3n2)sc2ccccc12)[c]1c(-c2cc(C)c3ccccc3n2)sc2ccccc12 [HIra] | > 32 |  |  |  | > 32 |  |  |  |  | > 32 |  |  |  |  | 
5 | [Cl-].c1ccc(-c2ccc3ccccc3n2)[c]([Ir+][c]2ccccc2-c2ccc3ccccc3n2)c1.c1ccc(-c2ccccn2)nc1 [TIr3] | 3.12 ± 0.2 | 19.8 ± 1.99 | 0.89 ± 0.09 | 7.88 ± 0.13 | 1.53 ± 0.07 | 8.77 ± 0.73 |  | 0.89 ± 0.02 | 7.51 ± 0.84 | 3.86 ± 0.18 | low cell viability | 10.7 ± 0.39 | 0.55 ± 0.06 | 16.3 ± 0.17 | approximately 10 nm
